Each structure is given as a SMILES string.

Usually melting point stands for the temperature of the solid-liquid transition. The molecule `COc1cccc(-c2c(/C=C/C(=O)NCCCCc3cccnc3)ccc3ccc(OC)cc23)c1` had a melting point of 108 to 110 °C.

Turning to `Cc1nc(-c2ccc(NC(=O)CCCC(=O)Nc3ccc(-c4noc(C)n4)cc3)cc2)no1`, the melting point was 235 to 237 °C.

`COc1ccc(-c2c(C(N)=O)c3n(c2Cl)CCN(C(=O)OC(C)(C)C)C3)cc1` showed a melting point of 188 °C.

With `O=C1Cc2cc(NC(=O)c3ccccc3[N+](=O)[O-])ccc2N1`, the melting point turned out to be 265 °C.

For `CCCCN(C(=O)NCCCCCCNC(=O)N(CCCC)C1CC(C)(CC)NC(C)(CC)C1C)C1CC(C)(CC)NC(C)(CC)C1C` (configuration not stated), the melting point turned out to be 146 °C.

With `CC(=O)Nc1c(-c2ccc(Cl)cc2)c2ccccc2n1C`, the melting point is 196 to 197 °C.

Consider `COC(=O)c1ccc(C#Cc2ccccc2F)o1`, for which the melting point was in the range of 106 to 108 °C.

In turn, `CCC12CCC3C4CCC(OC)=CC4=CCC3C1C=CC2=O` (configuration not stated) had a melting point of 159 to 161 °C.

`CC(C)(C)c1cc(C=O)ccc1O` displayed a melting point of 142 °C.

With `Cc1nc2c(C=O)cccn2c1C`, the melting point lay in the range of 145 to 148 °C.

`NC(=O)c1ccnc(-c2cccc3cc(Cc4cc(F)cc(Cl)c4)sc23)c1` gave a melting point of 173 to 175 °C.

As for `Cc1ccc2c(c1)C1(CCN(CCCC(=O)c3ccc(F)cc3)C1)CC2O` (configuration not stated), the melting point lay within 172 to 174 °C.

`COC(=O)c1nc(Oc2ccccc2)c(Cl)c(N)c1Cl` displayed a melting point of 88 to 90 °C.

`CC(O)CNc1c(F)cc2c(=O)c(C(=O)O)cn(-c3cc(N)c(F)cc3F)c2c1Cl` (configuration not stated): the melting point was 225 to 226 °C.

On to `CCOc1c(C=O)sc(NC(C)=O)c1C#N`, for which the melting point was 276 to 277 °C.

Molecule `CCCCC1(N(C)C)CCC(c2[nH]c3ccc(C(F)(F)F)cc3c2C)CC1` (configuration not stated) showed a melting point of 141 to 146 °C.

`CC(C)(CNS(=O)(=O)C(F)(F)F)Cn1c(=O)c2cccc3ncc(c1=O)n32` registered a melting point of 196 to 198 °C.

`COc1c(Cl)c(Cl)c2c(-c3ccccc3F)noc2c1Cl` came in with a melting point of 120 to 140 °C.

Molecule `Cc1nc2c(N)nc3ccccc3c2s1` gave a melting point of 184 to 187 °C.

On to `COC(=O)c1cc(-c2ccc3cc4c(cc3c2)C(C)(C)CCC4(C)C)c[nH]1`, for which the melting point lay within 140 to 143 °C.

In turn, `CCOC(=O)N1CCN(Cc2nc3cccnc3n2CCO)CC1` showed a melting point of 117 °C.

With `CC(C)(C)OC(=O)N1CCN(O)CC1`, the melting point fell in the range of 95 to 97 °C.

On to `Cc1cc(C)nc(OC(C(=O)O)C(O/C=C/Cc2ccccc2)(c2ccccc2)c2ccccc2)n1` (configuration not stated), for which the melting point lay within 128 to 133 °C.

`O=C(Nc1ccc(N2CCN(C(=O)Nc3ccc(OCCO)cc3C(F)(F)F)CC2)cc1)Nc1cccc2c1OCCO2` yielded a melting point of 127 to 129 °C.

Regarding `CCn1cc(C(=O)O)c(=O)c2cc(F)c(N3CCN(S(=O)(=O)c4ccc(Cl)cc4)CC3)c(F)c21`, the melting point was 231 to 233 °C.

As to `COC(=O)c1ccc(NC(=O)NCCCl)cc1`, the melting point was in the range of 163 to 165 °C.

Regarding `COc1cc(CCCO)ccc1OCc1nc(-c2ccco2)oc1C`, the melting point was in the range of 99 to 100 °C.

`CCOC=Nc1noc(-c2cc(C(C)(C)C)c(O)c(C(C)(C)C)c2)n1` had a melting point of 159 to 161 °C.

With `Brc1ccccc1-c1c(Br)cccc1Br`, the melting point was in the range of 95 to 97 °C.

With `C[C@H]([C@](O)(Cn1cncn1)c1ccc(F)cc1F)S(=O)(=O)N1CCN(c2ncccn2)CC1`, the melting point was in the range of 101 to 108 °C.

`CC1CNC(c2n[nH]c(-c3ccc(Cl)cc3)c2-c2ccncc2)C(C)N1` (configuration not stated) showed a melting point of 236 to 238 °C.

Turning to `CC(C)(Cl)C(CCn1ccnc1[N+](=O)[O-])N=O` (configuration not stated), the melting point is 96 to 97 °C.

In the case of `CCON=C(C(C)=NOCc1ccccc1C(=NOC)C(=O)NC)c1ccc(Oc2ccc(Cl)cc2)cc1`, the melting point was in the range of 126 to 129 °C.

`CC(=O)NCCC1CCc2ccn3nc(C)c(C)c3c21` (configuration not stated) gave a melting point of 134 to 135 °C.

With `CSc1nc(-c2ccc(O)cc2)n(C)n1`, the melting point is 216 to 220 °C.

`CN1OCC(=Cc2cc(C(C)(C)C)c(O)c(C(C)(C)C)c2)C1=O` gave a melting point of 194 to 196 °C.

For `COc1ccc(C(Sc2cc(Oc3cccc(C)c3)ccc2N)C(O)C(=O)O)cc1` (configuration not stated), the melting point was 163 to 165 °C.

As for `Clc1ccc2c(c1)Nc1ncccc1N=C2c1ccccc1`, the melting point fell in the range of 250 to 252 °C.

For the molecule `CCCN1N=C2C(=Cc3ccccc3)COCC2C1c1ccccc1` (configuration not stated), the melting point fell in the range of 114 to 115 °C.

As for `O=C(O)Cc1ccccc1OCCCc1cn(-c2ccc(C(F)(F)F)cn2)nc1-c1ccccc1`, the melting point was in the range of 133 to 134 °C.

`CCOC(=O)C1=C(COCCNC(N)=S)NC(C)=C(C(=O)OC)C1c1ccccc1Cl` (configuration not stated) gave a melting point of 204 °C.

Consider `COC(=O)CCSCC(=O)c1ccc2[nH]c(=O)[nH]c2c1`, for which the melting point fell in the range of 185 to 187 °C.

Regarding `Cn1nc(C(F)(F)F)cc1Oc1nc(Oc2cc(C(F)(F)F)nn2C)c(F)c(Oc2cc(C(F)(F)F)nn2C)c1F`, the melting point came out at 119 °C.

Molecule `O=c1[nH]c2ncc(-c3cccc(-c4cn[nH]n4)c3)nc2n1CC1CCCCC1` displayed a melting point of 299 to 301 °C.

Molecule `CCCCN(C(=O)CCC(=O)O)C1CC(C)(C)N(OC2CCCCC2)C(C)(C)C1` showed a melting point of 110 to 113 °C.

With `COC(=O)CCCC(Cl)C1SCC2NC(=O)N(Cc3ccccc3)C21` (configuration not stated), the melting point lay in the range of 141 to 142 °C.

`O=C(O)COc1ccc2c(-c3ccccc3F)noc2c1` returned a melting point of 182 to 184 °C.

`CC(C)Cn1c(-c2ccccc2)nc2cnc3ccccc3c21` registered a melting point of 139 to 140 °C.

Turning to `O=C1CCC(N2Cc3c(OCc4cn5cc(CN6CCOCC6)ccc5n4)cccc3C2=O)C(=O)N1` (configuration not stated), the melting point was in the range of 155 to 157 °C.

`COc1ccccc1C1=NN(C(=O)c2cccnc2)CC1C` (configuration not stated) displayed a melting point of 124 to 125 °C.

`COc1ccc(CS[C@@H]2C[C@@H](CN=[N+]=[N-])N(S(=O)(=O)c3ccc4ccccc4c3)C2)cc1` returned a melting point of 143 °C.

The molecule `CCOc1ccc(F)c2c1c(CCN(C)C)cn2CC` gave a melting point of 59 to 60 °C.

Molecule `CCn1c(CCO)nc(C2CC2)c1Sc1cc(C#N)cc(C#N)c1` registered a melting point of 122 to 124 °C.

`O=C(O)Cc1c(C(=O)c2ccc3c(c2)CCO3)[nH]c2cc(Cl)ccc12` displayed a melting point of 217 °C.

As for `CSC(C[N+](=O)[O-])NCCSCc1cc(C)c(CN(C)C)s1` (configuration not stated), the melting point was 69 to 71 °C.

`O=c1[nH]c2cc(F)c([N+](=O)[O-])cc2o1` gave a melting point of 207 to 209 °C.

`CC1N(C(=O)c2ccc(OCC(F)(F)C(F)F)cc2)CC(=O)OC1(Cn1cncn1)c1ccc(Cl)cc1Cl` (configuration not stated): the melting point fell in the range of 88 to 94 °C.

The molecule `CCCC(CCNC(=O)CC#N)NC(=O)CC#N` (configuration not stated) came in with a melting point of 141 °C.

Consider `CNc1nc(N)nc(OCC(F)(F)F)n1`, for which the melting point was in the range of 204 to 205 °C.

For `COc1ccc2c(Cc3c(Cl)cncc3Cl)nn(CC(=O)NO)c(=O)c2c1`, the melting point was 256 to 258 °C.

`O=[N+]([O-])c1nccn1CC(F)CO` (configuration not stated) yielded a melting point of 84 to 89 °C.

Molecule `Cc1csc2nc(Sc3ccccc3NC(=O)N[C@@H](Cc3ccc(NC(=O)c4c(Cl)cncc4Cl)cc3)C(=O)O)cnc12` displayed a melting point of 193 °C.

`O=C(CC1CC1)N[C@H]1CC[C@H](CCN2CCN(c3nccc4c3CCO4)CC2)CC1`: the melting point was 193 °C.

Turning to `O=c1c(Cc2cccnc2)cn2c3cc(F)ccc3c3cc(OCCCO)cc1c32`, the melting point lay in the range of 204 to 209 °C.

Consider `COc1ccc(C(O)CNC(=O)C(N)=O)cc1OC1CCCC1` (configuration not stated), for which the melting point was 180 to 181 °C.

`Cc1ccc(C(O)Cc2nc(C)c(C)nc2C)cc1` (configuration not stated) displayed a melting point of 99 to 101 °C.

`CCCN1CC(c2ccc(S(C)(=O)=O)cc2)=C(c2ccc(C)cc2)C1=O` registered a melting point of 161 to 163 °C.

`CN1CCN(c2cc(Cl)cc3c2c(=O)n(Cc2ccccc2F)c(=O)n3Cc2ccccc2)CC1` displayed a melting point of 147 to 149 °C.

For the molecule `COc1c(C#N)c2c(c3c1OC(C)(C)C3)C(c1ccccc1)=NC(C)(C)C2`, the melting point lay in the range of 166 to 168 °C.

`O=C(CCCOc1ccccc1OCc1ccccc1)C(F)(F)F` gave a melting point of 50 to 51 °C.

`Fc1ccc2[nH]cc(C3=CCN(CC4CCc5ccc6ncccc6c5O4)CC3)c2c1` (configuration not stated): the melting point stood at 148 °C.

With `O=C(N1CCCC1)n1c(CN2CCN(c3ccccn3)CC2)nc2ccccc21`, the melting point is 120 to 121 °C.

`CCCCCCCCCCCCCCCCCCOc1cc(O)cc(C(=O)OCc2ccccc2)c1` displayed a melting point of 72 to 75 °C.

`Cc1cccc(C(=O)Nc2ccc(N3CCN(Cc4cccc(C#N)c4)CC3)cc2)c1-c1ccc(C(C)C)cc1` gave a melting point of 137 °C.

As to `COC(=O)[C@H](C)OC(=O)c1cc(-n2c(=O)cc(C(F)(F)F)n(C)c2=O)ccc1Cl`, the melting point is 59 to 60 °C.

`O=C(NCCCCN1CCC(c2c[nH]c3ccccc23)CC1)c1ccc(-c2ccc(C(F)(F)F)cc2)c(CO)c1`: the melting point was determined as 177 °C.

Turning to `COc1ccccc1N1CCN(CCCC2(c3ccc(F)cc3)OCc3cc(C#N)ccc32)CC1` (configuration not stated), the melting point is 147 to 149 °C.

The molecule `CCNC1=C(c2ccc(OC)cc2)C(=O)c2cc(OC)ccc21` returned a melting point of 88 to 90 °C.

On to `C/C(=C\C=O)c1ccc(OCc2nc(-c3ccccc3)oc2C)cc1`, for which the melting point was 94 to 95 °C.

Consider `CCOC(=O)CCC1CCC2C(C=CC3=CCCc4c3n2c2ccncc42)C1` (configuration not stated), for which the melting point amounted to 112 °C.

`O[C@H](COc1cccc2[nH]ccc12)CN1CCC(c2c[nH]c3c(Cl)c(Cl)ccc23)CC1` showed a melting point of 192 to 197 °C.

`O=C(OCc1cc(-c2ccccc2)c(=O)n2c1-c1sccc1CC2)N1CCOCC1` returned a melting point of 163 to 164 °C.

As to `CC(=O)c1ccc2c(c1)N(C)CCC2(C)C`, the melting point was 46 to 48 °C.

As for `COc1ccc(-c2nc3c(C(=O)NC4CN5CCC4CC5)cccc3o2)cc1` (configuration not stated), the melting point was in the range of 108 to 109 °C.

For `COc1c2occc2cc2cc(C(=O)O)c(=O)oc12`, the melting point was 227 to 228 °C.

Molecule `Cc1cccc(C(NCC(=O)Nc2c(C(C)C)cccc2C(C)C)c2ccccc2)c1` (configuration not stated) showed a melting point of 119 to 120 °C.

In the case of `COc1ccc(C)cc1-c1cc(F)cc2c1OC(CN)C2` (configuration not stated), the melting point fell in the range of 110 to 111 °C.

Source of the values: a melting point compilation (Tetko et al.; mined from patent text by program, amines drawn as free bases though some values may be those of a salt).
